Experimental data from patent US12552815B2, “Boronic acid derivatives and synthesis, polymorphic forms, and therapeutic uses thereof” (QPEX BIOPHARMA, INC., priority 2020, dated 2026).

Assay: Dynamic vapor sorption (DVS) analysis
Assay type: physicochemical
Details: for hygroscopicity / water uptake by dynamic vapor sorption (DVS): 25° C., 10% RH steps from 5 to 95% RH and from 95 to 5% RH
Protocol: DVS analysis was carried out using a TA Instruments Q5000 Dynamic Vapor Sorption analyzer. The instrument was calibrated with standard weights and a sodium bromide standard for humidity. Approximately 20 mg of sample was loaded into a metal-coated quartz pan for analysis. The sample was analyzed at 25° C. with a maximum equilibration time of one hour in 10% relative humidity (RH) steps from 5 to 95% RH (adsorption cycle) and from 95 to 5% RH (desorption cycle). The movement from one step to the next occurred either after satisfying the equilibrium criterion of 0.01% weight change or, if the equilibrium criterion was not met, after one hour. The percent weight change values were calculated using Microsoft Excel®. The temperature for the DVS analysis can impact the outcome of the results.
Differential Scanning Calorimetry (5° C./min), Thermogravimetric analysis (5° C./min), and Dynamic Vapor Sorption (stepwise RH decrease from 45% to 0% at 50° C.) data for highly crystalline Form A of Compound I′ prepared analogously to the crystallization method above is shown in FIGS. 27-29, respectively.

SMILES: CCOC(=O)c1c(F)ccc2c1O[B-]1(C=C2)O[C@@H](c2ccccc2)[C@H](C)[NH+]1C (stereo partly shown) [Compound A-3, pseudoephedrine complex of ethyl 7-fluoro-2-hydroxy-2H-benzo[e][1,2]oxaborinine-8-carboxylate]
- hygroscopicity / water uptake by dynamic vapor sorption (DVS): not hygroscopic

SMILES: CCOC(=O)c1c(F)ccc2c1O[B-]1(O[C@@H](c3ccccc3)[C@H](C)[NH+]1C)[C@@H]1C[C@H]21 (stereo partly shown) [Compound A-4]
- hygroscopicity / water uptake by dynamic vapor sorption (DVS): not hygroscopic

SMILES: O=C([O-])c1c(F)ccc2c1O[B-](O)(O)[C@@H]1C[C@H]21.[Na+].[Na+] [Form A of Compound I′]
- hygroscopicity / water uptake by dynamic vapor sorption (DVS): hygroscopic
- gain/loss of water by dynamic vapor sorption (DVS), highly crystalline sample (relative humidity range of 5% to 75%, FIG. 29, stepwise RH decrease from 45% to 0% at 50° C.): resists gain/loss of water
